Article PMC6406907, “A H2AX–CARP-1 Interaction Regulates Apoptosis Signaling Following DNA Damage” (Cancers, 2019)

What was measured:
Format in all cases: cell-based, human
[1] = system: MDA-MB-468 cells expressing EGFP or EGFP-CARP-1 (636–650); assay: Flow cytometric analysis of apoptosis, MDA-MB-468 sublines; details: 10 μM, 24 h, EGFP vs EGFP-CARP-1 (636–650)-expressing MDA-MB-468
HeLa cells = assay: Comet assay (DNA damage), HeLa; set-up: Olive Tail Moment (Mean) / Tail Moment (Mean): unit not given here; details: for percentage of tail DNA and tail moment: 10 μM, 1, 3, 6, 12 h; for Olive Tail Moment (Mean) / Tail Moment (Mean) / %Tail DNA (Mean): 10 µM; for Olive Tail Moment (Mean): control 5.539; for Tail Moment (Mean): control 9.081; for %Tail DNA (Mean): control 28.414, alkaline electrophoresis, Vista Green
Method: The DNA damage assay was performed using a comet assay kit 96-well plate (Cell Bio Labs, CA, USA) as per the manufacturer’s instructions. Briefly, the cell suspension was mixed with the low-melting agarose at 1:20 ratio and added to the pre-coated 96 well plate. The cells were then subjected to lysis for 1 h, followed by alkaline electrophoresis. The plate was then washed in 70% ethanol and Vista Green DNA dye was added. The comets were visualized in Zeiss LSM780 Confocal microscope. The images were processed using Zeiss ZEN lite software and the comet parameters were measured using Open comet software.
Adriamycin is well known to induce DNA damage. Given the critical role of CARP-1 in apoptotic signaling by Adriamycin and CFM compounds, and the fact that stress-activated protein kinases (SAPKs) p38 and JNKs are activated in apoptosis signaling by CFM-4.16 [6, 12, 13, 14, 15, 16, 17, 18], we next determined whether CFM-4.16 also provoked DNA damage. We treated MDA-MB-468 and HeLa cells with a 10 μM dose of Adriamycin or CFM-4.16 for 1, 3, 6, and 12 h, followed by assessment of damaged DNA by the comet assay as described in Section 2. The presence of comet-like tails that contain the fragmented cellular DNA is a well-known marker/indicator of apoptosis. We measured the comet parameters such as percentage tail DNA and mean tail moment. […] Of note is the fact that Adriamycin and related anthracyclines intercalate between DNA bases and trap topoisomerase II (TopoII) in the double-strand cleavage form, thus introducing double-strand breaks (DSBs) due to TopoII poisoning. It remains to be clarified whether CFM-4.16 also targets cellular DNA and/or the associated DNA repair complex protein(s) to introduce DNA strand breaks, or activates caspase-activated DNAses to breakdown cellular genomic DNA.
Figure 2 Adriamycin and CFM-4.16 induce DNA damage. Cells were treated with the noted dose of respective compound for indicated time periods. Mean values for percentage tail DNA content (A,C) and Olive tail moment (B,D) for respective cells from control and treatment periods for each compound were measured using software recommended by the manufacturer of the kit for measurement of DNA damage (Cell Bio Labs, CA, USA). The columns in each chart indicate average values for respective treatment condition; bars, SE; * p ≤ 0.05.
Table S1. Adriamycin and CFM-4.16 stimulate DNA Damage in a time-dependent manner. MDA-MB-468 and HeLa cells were with noted dose of respective compound for indicated time periods.
Mean values for % tail DNA, Tail moment, and Olive tail moment for respective cells from control and treatment periods for each compound were measured using software recommended by the manufacturer of the kit for measurement of DNA damage (Cell Bio Labs, San Diego, CA, USA). The p values for each of the parameter are indicated below the mean values in each column for the treatment time period with each compound for both the cell lines.
Adriamycin (10 µM) CFM-4.16 (10 µM)

[2] = system: CARP-1, phospho-JNK1/2, phospho-H2AX, PARP; assay: Western blot of CARP-1, phospho-JNK1/2, γH2AX, cleaved PARP in MDA-MB-468; details: for CARP-1 and γH2AX increase after knock-down of CARP-1: MDA-MB-468, CARP-1 knock-down; for JNK1/2 and H2AX activation: cells overexpressing myc-His-tagged CARP-1, WB

In the case of `COc1cccc2c1C(=O)c1c(O)c3c(c(O)c1C2=O)C[C@@](O)(C(=O)CO)C[C@@H]3O[C@H]1C[C@H](N)[C@H](O)[C@H](C)O1` [Adriamycin, doxorubicin, reference compound], the cells undergoing apoptosis [1] is reported as “generally higher percentage of EGFP-expressing cells undergoing apoptosis”, the “percentage of tail DNA and tail moment” value (HeLa cells) is reported as “significantly increased” and the “Olive Tail Moment (Mean)” value (HeLa cells; 1 h) is reported as 18.8. The “Tail Moment (Mean)” value (HeLa cells; 1 h) was 32.09, the “%Tail DNA (Mean)” value (HeLa cells; 1 h) was 40.8% and the “Olive Tail Moment (Mean)” value (HeLa cells; 3 h) was 39.9. For the same compound, the “Tail Moment (Mean)” value (HeLa cells; 3 h) was 61.8, the “%Tail DNA (Mean)” value (HeLa cells; 3 h) was 76.74% and the “Olive Tail Moment (Mean)” value (HeLa cells; 6 h) was 47.9. The “Tail Moment (Mean)” value (HeLa cells; 6 h) was 79.11, the “%Tail DNA (Mean)” value (HeLa cells; 6 h) was 84.98% and the “Olive Tail Moment (Mean)” value (HeLa cells; 12 h) was 60.49. The “Tail Moment (Mean)” value (HeLa cells; 12 h) was 102.2, the “%Tail DNA (Mean)” value (HeLa cells; 12 h) was 93.4% and the “CARP-1 and γH2AX increase after knock-down of CARP-1” value [2] was “abrogated CARP-1 and γH2AX increase”. The “levels of CARP-1” value ([2]; MDA-MB-468, single agent (JNK-IN-8 at 5 μM), WB) was “elevated levels of CARP-1” and the “JNK1/2 and H2AX activation” value [2] was “time-dependent stimulation of JNK1/2 and H2AX activation”.
With `O=C1N(Cc2ccccc2Cl)c2ccccc2C12NN=C(c1cccc(Cl)c1)S2` (stereo not drawn) [CFM-4.16] the cells undergoing apoptosis [1] was “generally higher percentage of EGFP-expressing cells undergoing apoptosis”, the “percentage of tail DNA and tail moment” value (HeLa cells) was “significantly increased” and the “Olive Tail Moment (Mean)” value (HeLa cells; 1 h) was 10.9. For the same compound, the “Tail Moment (Mean)” value (HeLa cells; 1 h) was 16.526, the “%Tail DNA (Mean)” value (HeLa cells; 1 h) was 27.297% and the “Olive Tail Moment (Mean)” value (HeLa cells; 3 h) was 15.4. For the same compound, the “Tail Moment (Mean)” value (HeLa cells; 3 h) was 26.7, the “%Tail DNA (Mean)” value (HeLa cells; 3 h) was 34.45% and the “Olive Tail Moment (Mean)” value (HeLa cells; 6 h) was 32.73. For the same compound, the “Tail Moment (Mean)” value (HeLa cells; 6 h) was 47.54, the “%Tail DNA (Mean)” value (HeLa cells; 6 h) was 53.24% and the “Olive Tail Moment (Mean)” value (HeLa cells; 12 h) was 41.02. For the same compound, the “Tail Moment (Mean)” value (HeLa cells; 12 h) was 76.03, the “%Tail DNA (Mean)” value (HeLa cells; 12 h) was 69.61% and the “CARP-1 and γH2AX increase after knock-down of CARP-1” value [2] was “abrogated CARP-1 and γH2AX increase”. The “JNK1/2 and H2AX activation” value [2] was “time-dependent stimulation of JNK1/2 and H2AX activation”.
